Legend:
[1] = test system: DERL-7 (IL-2 2.5 ng/mL); assay: drug sensitivity score (DSS) (DSS units); higher = more sensitive; extreme values may be limits of the assay; conditions: 72 h
[2] = test system: normal primary NK cells, pool 3 (3 donors) (IL-2 2.5 ng/mL); assay: as above; conditions: 72 h
[3] = test system: normal primary NK cells, pool 1 (3 donors), resting (IL-2 0 ng/mL); assay: as above; conditions: 72 h
[4] = test system: YT (IL-2 2.5 ng/mL); assay: as above; conditions: 72 h
[5] = test system: normal primary NK cells, pool 2 (3 donors) (IL-2 2.5 ng/mL); assay: as above; conditions: 72 h
[6] = test system: IMC-1 (IL-2 20 ng/mL); assay: as above; conditions: 72 h
[7] = test system: NKL (IL-2 2.5 ng/mL); assay: as above; conditions: 72 h
[8] = test system: NK-92 (IL-2 2.5 ng/mL); assay: as above; conditions: 72 h
[9] = test system: KAI3 (IL-2 2.5 ng/mL); assay: as above; conditions: 72 h
[10] = test system: NK-YS (IL-2 2.5 ng/mL); assay: as above; conditions: 72 h
[11] = test system: KHYG-1 (IL-2 2.5 ng/mL); assay: as above; conditions: 72 h
[12] = test system: SNK-6 (IL-2 2.5 ng/mL); assay: as above; conditions: 72 h
[13] = test system: normal primary NK cells, pool 1 (3 donors) (IL-2 2.5 ng/mL); assay: as above; conditions: 72 h
[14] = test system: DERL-7 (IL-2 2.5 ng/mL); assay: percent inhibition of viability; higher = more inhibition; conditions: 72 h
[15] = test system: normal primary NK cells, pool 3 (3 donors) (IL-2 2.5 ng/mL); assay: as above; conditions: 72 h
[16] = test system: normal primary NK cells, pool 1 (3 donors), resting (IL-2 0 ng/mL); assay: as above; conditions: 72 h
[17] = test system: YT (IL-2 2.5 ng/mL); assay: as above; conditions: 72 h
[18] = test system: normal primary NK cells, pool 2 (3 donors) (IL-2 2.5 ng/mL); assay: as above; conditions: 72 h
[19] = test system: IMC-1 (IL-2 20 ng/mL); assay: as above; conditions: 72 h
[20] = test system: NKL (IL-2 2.5 ng/mL); assay: as above; conditions: 72 h
[21] = test system: NK-92 (IL-2 2.5 ng/mL); assay: as above; conditions: 72 h
[22] = test system: KAI3 (IL-2 2.5 ng/mL); assay: as above; conditions: 72 h
[23] = test system: NK-YS (IL-2 2.5 ng/mL); assay: as above; conditions: 72 h
[24] = test system: KHYG-1 (IL-2 2.5 ng/mL); assay: as above; conditions: 72 h
[25] = test system: SNK-6 (IL-2 2.5 ng/mL); assay: as above; conditions: 72 h
[26] = test system: normal primary NK cells, pool 1 (3 donors) (IL-2 2.5 ng/mL); assay: as above; conditions: 72 h
[27] = test system: normal NK cells expanded with K562-aAPC; assay: drug sensitivity score (DSS) (DSS units); higher = more sensitive; extreme values may be limits of the assay; conditions: 72 h; IL-2 2.5 ng/mL
Method: (§1)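 Drug sensitivity and resistance testing on K562-aAPC-expanded normal NK cells: 5 concentrations (10-fold steps over a 10,000-fold range), 72 h at 37 °C, viability by CellTiter-Glo normalised to DMSO and benzethonium chloride controls; DSS from the fitted curve.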

[28] = test system: normal NK cells expanded with K562-aAPC; assay: percent inhibition of viability; higher = more inhibition; conditions: 72 h, IL-2 2.5 ng/mL
Method: as §1

COc1cc(N2CCC(N3CCN(C)CC3)CC2)ccc1Nc1ncnc(Nc2ccccc2S(=O)(=O)C(C)C)n1 [ASP3026] (max concentration tested 10000 nM)
Conditions	drug sensitivity score
[1]	3.14
[2]	0.03
[3]	3.53
[4]	5.89
[5]	0.97
[6]	5.24
[7]	4.54
[8]	0.4
[9]	3.79
[10]	3.39
[11]	5.05
[12]	0
[13]	3.22
[27]	6.45

percent inhibition of viability [%]
Conditions	1 nM	10 nM	100 nM	1000 nM	10000 nM
[14]	0.73	-6.32	2.12	0.42	57.2
[15]	1.7	-6.92	8.07	2.81	13.3
[16]	-11.5	-0.46	-1.76	10.4	39.3
[17]	-2.02	-0.55	1.22	12.5	69.4
[18]	-4.59	-7.52	3.32	-3.09	28.1
[19]	-8.57	-5.26	-7.48	-3.28	98.9
[20]	-3.77	-9.59	5.62	18.9	47.8
[21]	-10.8	-22.5	-27.1	-14.8	22.2
[22]	5.1	3.91	7.67	16.4	42.7
[23]	-5.41	-0.07	-1.63	6.41	44.9
[24]	-6.71	0.13	-0.92	10.2	61.3
[25]	-14.8	-8.98	-26.5	-35.9	8.43
[26]	-1.83	5.98	6.01	9.21	38.7
[28]	0.75	-1.15	0.69	7.2	96.3

O=c1[nH]cc(F)c(=O)[nH]1 [Fluorouracil] (max concentration tested 10000 nM)
Conditions	drug sensitivity score
[1]	4.1
[2]	0
[3]	5.42
[4]	8.28
[5]	0
[6]	0.36
[7]	8.01
[8]	8.76
[9]	8.77
[10]	9.4
[11]	6.91
[12]	9.4
[13]	0
[27]	2.24

percent inhibition of viability [%]
Conditions	1 nM	10 nM	100 nM	1000 nM	10000 nM
[14]	-1.71	-2.2	-3.46	5.05	60.8
[15]	-3.48	2.62	7.34	0.65	7.07
[16]	2.96	13.7	16.1	21.9	19
[17]	-7.37	-4.14	-1.13	39.8	64
[18]	1.43	2.09	10.1	5	7.54
[19]	-7.45	1.88	-3.48	4.56	12.9
[20]	-15.3	-7.36	-0.39	28.1	74.8
[21]	-11.2	1.29	5.09	42.9	60
[22]	-0.14	3.84	8.25	42.8	49.3
[23]	-1.75	0.12	4.17	40.3	84
[24]	-4.58	-7.58	-3.77	12.7	86.4
[25]	-7.99	-14.1	-22.8	34.2	86.7
[26]	-1.01	15.2	8.55	0.37	11.4
[28]	-6.1	-8.86	-5.42	2.62	38.1

CNC(=O)c1ccc(N2C(=S)N(c3ccc(C#N)c(C(F)(F)F)c3)C(=O)C23CCC3)cc1F [RD162] (max concentration tested 10000 nM)
Conditions	drug sensitivity score
[1]	0
[2]	0
[3]	5.08
[4]	1.51
[5]	0.09
[6]	0.76
[7]	1.84
[8]	1.56
[9]	0.52
[10]	0.56
[11]	0.01
[12]	0
[13]	0.72
[27]	0

percent inhibition of viability [%]
Conditions	1 nM	10 nM	100 nM	1000 nM	10000 nM
[14]	2.54	-3.32	-8.09	-8.58	-5.45
[15]	-4.05	-1.08	1.71	-2.99	3.64
[16]	1.38	18.7	13.6	12.9	40.5
[17]	-8.11	-4.09	-6.39	3.85	24.7
[18]	-7.24	-1.28	0.84	3.39	11.3
[19]	-5.69	-2.87	-1.68	2.9	17.6
[20]	-11.3	-5.72	-0.58	7.33	23.9
[21]	-11.3	5.25	-15.2	-0.07	33.8
[22]	-2.44	-0.44	1.83	0.32	18.6
[23]	-12.1	-6.94	-9.33	1.8	16.9
[24]	-6.85	-6.64	-5.8	2.74	10.4
[25]	-1.99	-21.8	2.57	-8.56	1.37
[26]	-2.22	4.97	8.69	3.69	20.8
[28]	-8.24	-9.67	-4.97	7.5	1.43

O=C(Nc1cccc(Nc2ncc(Br)c(NCCc3cnc[nH]3)n2)c1)N1CCCC1 [BX-912] (max concentration tested 10000 nM)
Conditions	drug sensitivity score
[1]	11.4
[2]	5.85
[3]	2.21
[4]	8.82
[5]	7.7
[6]	13.3
[7]	9.05
[8]	8.1
[9]	13.7
[10]	5.99
[11]	14.9
[12]	13.4
[13]	7.12
[27]	9.08

percent inhibition of viability [%]
Conditions	1 nM	10 nM	100 nM	1000 nM	10000 nM
[14]	2.87	-0.14	-7.54	46.5	100
[15]	-2.12	3.72	-4.74	17.4	59.6
[16]	-5.56	-0.72	-0.67	-4.14	48.2
[17]	5.65	4	10.3	27.9	94
[18]	-15	-8.59	-3.23	28.3	70.2
[19]	-2.34	-6.68	1.1	67.4	100
[20]	-14.9	-11.4	13.4	37.6	82.2
[21]	-9.43	-1.33	-2.11	29.9	73.8
[22]	4.7	2.59	15.4	62.1	91.9
[23]	-1.46	-2.48	3.48	12.5	71
[24]	2.7	1.66	7.53	73.7	99.5
[25]	-3.93	-10.2	-7.12	74.4	84.7
[26]	-2.38	3.58	-5.48	24.1	67.8
[28]	6.59	2.98	3.43	27.4	91.5

COc1cc2c(Oc3ccc4[nH]c(C)cc4c3F)ncnc2cc1OCCCN1CCCC1 [Cediranib] (max concentration tested 1000 nM)
Conditions	drug sensitivity score
[1]	0
[2]	0
[3]	0
[4]	0
[5]	0
[6]	1.2
[7]	0
[8]	1.88
[9]	0
[10]	0
[11]	0
[12]	0
[13]	0
[27]	0.03

percent inhibition of viability [%]
Conditions	0.1 nM	1 nM	10 nM	100 nM	1000 nM
[14]	0.36	1.65	5.2	3.45	7.76
[15]	-13.7	-14.2	-5.69	-12.7	-3.19
[16]	4.39	-7.82	2.26	-0.33	6.25
[17]	-2.86	-1.1	-1.25	-2.55	7.27
[18]	-4.71	1.73	4.28	-4.99	7
[19]	-5.84	1.16	-0.8	8.28	17.6
[20]	-22.1	-12.6	-8.18	4.3	-2.96
[21]	-10.6	3.93	7.82	10.5	25.9
[22]	4.2	-2.39	-4.78	-7.3	2.49
[23]	-2.57	-1.64	-1.64	-2.9	4.62
[24]	4.26	1.2	0.25	3.56	5.7
[25]	-0.01	-5.98	-7.81	1.67	-2.98
[26]	4.11	-11.2	-8.24	-9.08	-10.8
[28]	-3.67	-0.35	-1.67	10.2	9.48
